Results: patent publication US9879032B2, “Pyridine compounds” (Daiichi Sankyo Company, Limited, priority 2015, dated 2018)
pIC50: −log10 of the molar value.

Target: human TNAP (Homo sapiens (Human), UniProt P05186)
Experiment: Inhibitory test of TNAP activity (pNPP substrate, p-nitrophenol production)
Assay type: biochemical
Conditions: inhibition of human TNAP activity, incubated at room temperature for 60 minutes
Experimental: COS 1 cells (DS Pharma Biomedical Co., Ltd.) were transfected with human TNAP (OriGene Technologies, Inc.) using Lipofectamine LTX & Plus reagent (Invitrogen Corp.). On the next day, the medium was replaced with a fresh medium, and the cells were cultured in an incubator for 3 days. After 3 days, the culture supernatant was collected and concentrated by centrifugation at 5000 G for 30 minutes using Amicon 14, 10^4 cut (Merck Millipore). The concentrated culture supernatant was dialyzed against 5 L of 50 mM Tris/200 mM NaCl/1 mM MgCl2/20 μM ZnCl2 twice and used as an enzyme source (enzyme solution). The substrate pNPP (ProteoChem Inc.) was adjusted to 3.1 mM with Milli-Q water, and a solution of each test compound dissolved in dimethyl sulfoxide (DMSO; Wako Pure Chemical Industries, Ltd.) by 6 serial dilutions at a 5-fold common ratio from 100 μM, or DMSO was added thereto at a final concentration of 1% by volume. The enzyme solution adjusted to 2 μg/mL with an assay buffer (200 mM Tris/2 mM MgCl2/0.04 mM ZnCl2/0.01% Tween 20) was added in the same amount of the substrate solution and incubated at room temperature for 60 minutes. Then, the absorbance (ABS: 405 nm) was measured using a microplate reader (model plus 384, Molecular Devices, LLC), and the concentration of produced p-nitrophenol was calculated.

Chain of human TNAP (P05186 18-502): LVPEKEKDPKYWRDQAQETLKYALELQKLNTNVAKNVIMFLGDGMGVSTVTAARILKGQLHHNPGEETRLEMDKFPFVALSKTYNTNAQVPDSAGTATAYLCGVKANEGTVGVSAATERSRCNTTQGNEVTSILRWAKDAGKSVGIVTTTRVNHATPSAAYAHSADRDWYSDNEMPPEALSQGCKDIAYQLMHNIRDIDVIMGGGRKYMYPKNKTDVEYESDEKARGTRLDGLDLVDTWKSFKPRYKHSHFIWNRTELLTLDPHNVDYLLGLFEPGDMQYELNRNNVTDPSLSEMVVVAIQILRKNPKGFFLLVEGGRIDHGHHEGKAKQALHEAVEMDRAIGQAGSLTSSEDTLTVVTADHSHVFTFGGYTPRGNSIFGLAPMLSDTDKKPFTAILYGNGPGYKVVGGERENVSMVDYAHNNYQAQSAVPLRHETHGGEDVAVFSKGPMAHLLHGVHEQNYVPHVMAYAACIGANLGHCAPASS

`COc1ccc(Cl)cc1S(=O)(=O)Nc1cnc2c(c1)C(=O)N(c1cccnc1)CCO2` [Example 39, 5-Chloro-2-methoxy-N-[5-oxo-4-(pyridin-3-yl)-2,3,4,5-tetrahydropyrido[3,2-f][1,4]oxazepin-7-yl]benzenesulfonamide] showed a pIC50 of 7.88.
In the case of `O=C1N[C@@H](CO)COc2ncc(NS(=O)(=O)c3cc(Cl)ccc3OC(F)(F)F)cc21` [Example 31, 5-Chloro-N-[(3S)-3-(hydroxymethyl)-5-oxo-2,3,4,5-tetrahydropyrido[3,2-f][1,4]oxazepin-7-yl]-2-(trifluoromethoxy)benzenesulfonamide], the pIC50 was 8.80.
`O=C1N[C@@H](CO)COc2ncc(NS(=O)(=O)c3cc(F)ccc3OC(F)(F)F)cc21` [Example 32, 5-Fluoro-N-[(3S)-3-(hydroxymethyl)-5-oxo-2,3,4,5-tetrahydropyrido[3,2-f][1,4]oxazepin-7-yl]-2-(trifluoromethoxy)benzenesulfonamide] showed a pIC50 of 8.39.
For `COc1ccc(Cl)cc1S(=O)(=O)Nc1cnc2c(c1)C(=O)N(C)C(C)CO2` (stereo not drawn) [Example 16, 5-Chloro-N-(3,4-dimethyl-5-oxo-2,3,4,5-tetrahydropyrido[3,2-f][1,4]oxazepin-7-yl)-2-methoxybenzenesulfonamide], the pIC50 was 8.21.
With `COc1ccc(F)cc1S(=O)(=O)Nc1cnc2c(c1)C(=O)N(C)CCO2` [Example 2, 5-Fluoro-2-methoxy-N-(4-methyl-5-oxo-2,3,4,5-tetrahydropyrido[3,2-f][1,4]oxazepin-7-yl)benzenesulfonamide] the pIC50 was 7.90.
With `COc1ccc(Cl)cc1S(=O)(=O)Nc1cnc2c(c1)C(=O)N[C@@H](C(C)C)CO2` [Example 26, 5-Chloro-2-methoxy-N-[(3S)-5-oxo-3-(propan-2-yl)-2,3,4,5-tetrahydropyrido[3,2-f][1,4]oxazepin-7-yl]benzenesulfonamide] the pIC50 was 8.06.
Molecule `COc1ccc(Br)cc1S(=O)(=O)Nc1cnc2c(c1)C(=O)N[C@@H](CO)CO2` [Example 29, 5-Bromo-N-[(3S)-3-(hydroxymethyl)-5-oxo-2,3,4,5-tetrahydropyrido[3,2-f][1,4]oxazepin-7-yl]-2-methoxybenzenesulfonamide] has a pIC50 of 8.92.
Molecule `O=C1NC2(CC2)COc2ncc(NS(=O)(=O)c3cc(F)ccc3OC(F)(F)F)cc21` [Example 41, 5-Fluoro-N-(5′-oxo-4′,5′-dihydrospiro[cyclopropane-1,3′-pyrido[3,2-f][1,4]oxazepin]-7′-yl)-2-(trifluoromethoxy)benzenesulfonamide] has a pIC50 of 8.57.
In the case of `COCCN1CCOc2ncc(NS(=O)(=O)c3cc(Cl)ccc3OC)cc2C1=O` [Example 7, 5-Chloro-2-methoxy-N-[4-(2-methoxyethyl)-5-oxo-2,3,4,5-tetrahydropyrido[3,2-f][1,4]oxazepin-7-yl]benzenesulfonamide], the pIC50 was 7.97.
`COc1ccc(Cl)cc1S(=O)(=O)Nc1cnc2c(c1)C(=O)N(C(C)C)CCO2` [Example 5, 5-Chloro-2-methoxy-N-[5-oxo-4-(propan-2-yl)-2,3,4,5-tetrahydropyrido[3,2-f][1,4]oxazepin-7-yl]benzenesulfonamide] gave a pIC50 of 7.15.
In the case of `O=C1NC2(CC2)COc2ncc(NS(=O)(=O)c3cc(Cl)ccc3OC(F)(F)F)cc21` [Example 40, 5-Chloro-N-(5′-oxo-4′,5′-dihydrospiro[cyclopropane-1,3′-pyrido[3,2-f][1,4]oxazepin]-7′-yl)-2-(trifluoromethoxy)benzenesulfonamide], the pIC50 was 8.72.
Molecule `COc1ccc(CN2CCOc3ncc(NS(=O)(=O)c4cc(Cl)ccc4OC)cc3C2=O)c(OC)c1` [Example 8, 5-Chloro-N-[4-(2,4-dimethoxybenzyl)-5-oxo-2,3,4,5-tetrahydropyrido[3,2-f][1,4]oxazepin-7-yl]-2-methoxybenzenesulfonamide] has a pIC50 of 8.04.
Work on `COc1ccc(Cl)cc1S(=O)(=O)Nc1cnc2c(c1)C(=O)N[C@@H](C)CO2` [Example 22, 5-Chloro-2-methoxy-N-[(3S)-3-methyl-5-oxo-2,3,4,5-tetrahydropyrido[3,2-f][1,4]oxazepin-7-yl]benzenesulfonamide] yielded a pIC50 of 8.77.
In the case of `COc1ccc(Cl)cc1S(=O)(=O)Nc1cnc2c(c1)C(=O)N(C)CCO2` [Example 1, 5-Chloro-2-methoxy-N-(4-methyl-5-oxo-2,3,4,5-tetrahydropyrido[3,2-f][1,4]oxazepin-7-yl)benzenesulfonamide], the pIC50 was 8.20.
`COc1ccc(F)cc1S(=O)(=O)Nc1cnc2c(c1)C(=O)N(C)C(C)CO2` (stereo not drawn) [Example 17, N-(3,4-Dimethyl-5-oxo-2,3,4,5-tetrahydropyrido[3,2-f][1,4]oxazepin-7-yl)-5-fluoro-2-methoxybenzenesulfonamide] gave a pIC50 of 7.90.
Molecule `CCN1CCOc2ncc(NS(=O)(=O)c3cc(Cl)ccc3OC)cc2C1=O` [Example 3, 5-Chloro-N-(4-ethyl-5-oxo-2,3,4,5-tetrahydropyrido[3,2-f][1,4]oxazepin-7-yl)-2-methoxybenzenesulfonamide] has a pIC50 of 7.89.
In the case of `COc1ccc(Cl)cc1S(=O)(=O)Nc1cnc2c(c1)C(=O)NC1(CC1)CO2` [Example 35, 5-Chloro-2-methoxy-N-(5′-oxo-4′,5′-dihydrospiro[cyclopropane-1,3′-pyrido[3,2-f][1,4]oxazepin]-7′-yl)benzenesulfonamide], the pIC50 was 8.96.
In the case of `COc1ccc(F)cc1S(=O)(=O)Nc1cnc2c(c1)C(=O)N(C)CC(C)O2` (stereo not drawn) [Example 15, N-(2,4-Dimethyl-5-oxo-2,3,4,5-tetrahydropyrido[3,2-f][1,4]oxazepin-7-yl)-5-fluoro-2-methoxybenzenesulfonamide], the pIC50 was 7.02.
With `COc1ccc(Cl)cc1S(=O)(=O)Nc1cnc2c(c1)C(=O)N[C@@H](CCO)CO2` [Example 33, 5-Chloro-N-[(3S)-3-(2-hydroxyethyl)-5-oxo-2,3,4,5-tetrahydropyrido[3,2-f][1,4]oxazepin-7-yl]-2-methoxybenzenesulfonamide] the pIC50 was 8.72.
For `COc1ccc(Cl)cc1S(=O)(=O)Nc1cnc2c(c1)C(=O)N(c1ccccc1)CCO2` [Example 37, 5-Chloro-2-methoxy-N-(5-oxo-4-phenyl-2,3,4,5-tetrahydropyrido[3,2-f][1,4]oxazepin-7-yl)benzenesulfonamide], the pIC50 was 7.36.
Work on `COc1ccc(Cl)cc1S(=O)(=O)Nc1cnc2c(c1)C(=O)N(C)[C@@H](C)CO2` [Example 18, 5-Chloro-N-[(3S)-3,4-dimethyl-5-oxo-2,3,4,5-tetrahydropyrido[3,2-f][1,4]oxazepin-7-yl]-2-methoxybenzenesulfonamide] yielded a pIC50 of 8.41.
For `COc1ccc(Cl)cc1S(=O)(=O)Nc1cnc2c(c1)C(=O)N[C@@H](CO)CO2` [Example 27, 5-Chloro-N-[(3S)-3-(hydroxymethyl)-5-oxo-2,3,4,5-tetrahydropyrido[3,2-f][1,4]oxazepin-7-yl]-2-methoxybenzenesulfonamide], the pIC50 was 8.82.
Molecule `COc1ccc(F)cc1S(=O)(=O)Nc1cnc2c(c1)C(=O)N[C@@H](CO)CO2` [Example 28, 5-Fluoro-N-[(3S)-3-(hydroxymethyl)-5-oxo-2,3,4,5-tetrahydropyrido[3,2-f][1,4]oxazepin-7-yl]-2-methoxybenzenesulfonamide] has a pIC50 of 8.44.
With `COc1ccc(OC)c(S(=O)(=O)Nc2cnc3c(c2)C(=O)NC2(CC2)CO3)c1` [Example 43, 2,5-Dimethoxy-N-(5′-oxo-4′,5′-dihydrospiro[cyclopropane-1,3′-pyrido[3,2-f][1,4]oxazepin]-7′-yl)benzenesulfonamide] the pIC50 was 9.00.
